Experimental data from US11058772B2, “(Bacterio)chlorophyll photosensitizers for treatment of eye diseases and disorders” (Yeda Research and Development Co. Ltd., priority 2011, dated 2021).

Key:
[1] = test system: rabbit sclera; test: Depth of penetration into the rabbit sclera (fluorescence microscopy); type: in vitro ADME; conditions: ex vivo using eye cap and in-situ using Merocel sponge
Experimental: Test compound solution was applied in the supero-temporal or infero-nasal (alternating) quadrant of the rabbit by a curved plastic or metal glide with attached Merocel® sponge connected by a tube that ran along the glide outside. The glide was inserted through a conjunctival opening at the limbus (see FIGS. 17A-17B). After placing the glide attached to the sclera, the tube was connected to a syringe or pump, and the test compound reservoir was injected to impregnate the sclera. Application of the photosensitizer was continued for 10 or 30 minutes. Afterwards, the glide with the Merocel® was withdrawn.
The treated scleral area and the opposing control sclera were trephined with a round skin trephine of 8-mm diameter and scissors and immediately frozen. Sagittal slices of 20 microns were dissected with a cryomicrotome at the central area of the scleral button. The fluorescence intensity at 755 nm was recorded upon excitation at 740 nm using a fluorescence microscope (Olympus, Japan).

[2] = test system: rabbit sclera; test: Biomechanical testing of rabbit sclera treated ex vivo, NIR illumination through the anterior eye segment; conditions: 20 min incubation
Experimental: The corneal and scleral strips were clamped horizontally, at a distance of 6 mm, between the jaws of a microcomputer-controlled biomaterial tester (Minimat, Germany) with a 200 Newton force cell (FIG. 1). Controlled tightening of screws was performed with a calibrated screwdriver at a preset torque of 9 cN.m (Torqueleader, England). The strain was increased linearly at a rate of 1.0 mm/min and was measured up to tissue rupture. Young's modulus was calculated by the testing machine. Ultimate stress and Young's modulus were expressed in Mega Pascal (MPa) units.
Six eyes of three rabbits were enucleated. The posterior eye area up to the equatorial line was incubated using an eye cap with 2.5 mg/ml solution of WST11 in saline pH 7.3 for 20 minutes and then illuminated by NIR illumination through the anterior cornea using a diode laser (755 nm, 0.5 W) and three mirror fundus lens (FIGS. 18A-18C) for 30 minutes. Strips of sclera were cut and tested as described in Materials and Methods.

[3] = test system: de-epithelialized rabbit cornea; test: Photobleaching of photosensitizer in ex-vivo treated corneas; conditions: 20 min pretreatment
Experimental: Corneas of eyes from euthanized rabbits were de-epithelialized. Usually, 5 rabbits were tested, and 8 of the 10 eyes were pretreated for 20 minutes with a bacteriochlorophyll derivative in saline (Bchl-S), using an eye cap. The solution excess was carefully tipped off with filter paper. The eyes were irradiated for the specified time duration: 0, 10, 30, and 60 min (two corneas per time frame). Additional two eyes were used as control. The corneas were removed, and the central buttons of 8-mm diameter were punched out with a round trephine. Absorption spectra were recorded using V-570 spectrophotometer (Jasco, Japan).
It was previously described by the present inventors that generation of oxygen radicals upon illumination of certain bacteriochlorophyll derivatives such as WST11 in the absence of serum albumin is accompanied by bleaching of the NIR transition and absorption increase at ˜645 nm due to the photochemical generation of a chlorophyll-like molecules (Ashur et al. 2009). Such changes are therefore important markers for the photochemical activity of such bacteriochlorophyll derivatives in situ. […] Results obtained for 10 corneas of 5 euthanized rabbits treated with WST11 in saline are presented herein.
Eight de-epithelialized eyes were retreated with WST11-S for 20 min using an eye cap, and the remaining 2 eyes served as control. […] In parallel, the absorption increased at 645 nm (upward arrow), typical to the corresponding chlorin derivative formation by the photochemical interaction of WST11 with molecular oxygen (Ashur et al., 2009)

[4] = test system: rabbit cornea; test: Penetration depth in cornea from aqueous 65% sucrose solution; type: in vivo; conditions: 2.5 mg/ml in aqueous 65% sucrose
Experimental: Eyes of rabbits were enucleated and deepithelialised mechanically post mortem. The eyes were exposed to Bchl-S solution using an eye cap for 5, 10, and 30 minutes and to Bchl-D solution for 10 and 30 min, in darkness. Controls: untreated eyes, and one eye treated with dextran-500 only for 30 min in darkness. Following this pretreatment, the corneas were briefly rinsed with saline and the central 8-mm buttons were trephined, removed, wrapped in aluminum foil and frozen on dry ice until further use. Central serial corneal sagittal slices (12 μm) were cut with a cryomicrotome, mounted on a microscope glass slide and stored frozen in −70° C. until use. For measurement of fluorescence, the individual slices were placed on the microscope base and a photographic record was immediately taken. Fluorescence intensity of Bchl-S or Bchl-D treated corneas from 3 serial cryo sections was recorded at 760 nm, upon excitation at 740 nm, using a fluorescence microscope (BX61 Olympus, Japan) equipped with CCD camera (Cascade 512B, Roper Sci., USA) and a long pass filter of above 760 nm. The digital data was analyzed, using ImageJ software (NIH, USA). […]

[5] = test system: de-epithelialized rabbit cornea; test: Overall accumulation of photosensitizer by the rabbit cornea (optical absorption at 755 nm); type: in vitro ADME; conditions: exposure to saline solution for 10, 20 and 30 min; increased with time
Experimental: Eyes of rabbits were de-epithelialised mechanically immediately post mortem. For most studies, 6 rabbits were used, wherein 6 eyes of 6 rabbits were exposed to the bacteriochlorophyll test compound for 10, 20 and 30 minutes (2 eyes for each test) using an eye cap, while the contralateral eyes were left untreated and served as controls. The corneas were removed and the central buttons of 8-mm diameter were punched out with a round trephine and placed onto the outer side of a polymethylmethacrylate cuvette in the area of light beam passage. Absorption spectra were recorded, and optical density (OD) at 600-900 nm (in most cases at 755 nm) was measured using V-570 spectrophotometer (Jam), Japan).
Six eyes of 3 euthanized rabbits were de-epithelialized mechanically immediately post mortem. Five of these eyes were exposed to WST11 in saline (WST11-S solution) for 10, 20 and 30 min, using an eye cap, and the optical absorption at 755 nm of the washed corneas was determined as described in Materials and Methods. One eye served as untreated control.

penetration into sclera [1]: penetrated into sclera tissue
penetration, fraction of the outer stroma ([4]; 10-min incubation): ⅓
penetration, fraction of the outer stroma ([4]; 30-min incubation): ½
SMILES: CCC1C2=Cc3c(C)c(C(=O)NCCS(=O)(=O)[O-])c4[n]3[Pd][n]3c(c(C)c(C(C)=O)c3=CC(=N2)C1C)=CC1=NC(=C4CC(=O)OC)C(CCC(=O)[O-])C1C.[K+].[K+] (centres unmarked) [WST11, Palladium 3^1-oxo-15-methoxycarbonylmethyl-rhodobacteriochlorin 13^1-(2-sulfoethyl)amide dipotassium salt]
increase in Young's modulus ([2]; NIR through anterior cornea): 54%
increase in maximal stress ([2]; NIR through anterior cornea): 42%
mean maximal stress ([2]; NIR through anterior cornea 30 min, control 4.65±1.15): 6.59±1.32 MPa
mean Young's modulus ([2]; NIR through anterior cornea 30 min, control 25.25±5.30): 38.83±6.89 MPa
755-nm absorption of corneal WST11 diminished by ([3]; NIR illumination 10 min): 30%
755-nm absorption of corneal WST11 diminished by ([3]; NIR illumination 30 min): 50%
755-nm absorption of corneal WST11 diminished by ([3]; NIR illumination 60 min): 75%
optical density of the impregnated corneas at 755 nm [5]: ≤ 1.71 OD units
